From article PMC3679108, “A Novel Glucagon-Related Peptide (GCRP) and Its Receptor GCRPR Account for Coevolution of Their Family Members in Vertebrates” (PLoS ONE, 2013) come the findings set out here.

Holding throughout (assay type): cell-based
Test [1] deals with T1, huGIPR (Homo sapiens, UniProt P48546).
T1 construct: expressed in transfected cells; host or cells: HEK293T
T1 sequence (P48546 22-466): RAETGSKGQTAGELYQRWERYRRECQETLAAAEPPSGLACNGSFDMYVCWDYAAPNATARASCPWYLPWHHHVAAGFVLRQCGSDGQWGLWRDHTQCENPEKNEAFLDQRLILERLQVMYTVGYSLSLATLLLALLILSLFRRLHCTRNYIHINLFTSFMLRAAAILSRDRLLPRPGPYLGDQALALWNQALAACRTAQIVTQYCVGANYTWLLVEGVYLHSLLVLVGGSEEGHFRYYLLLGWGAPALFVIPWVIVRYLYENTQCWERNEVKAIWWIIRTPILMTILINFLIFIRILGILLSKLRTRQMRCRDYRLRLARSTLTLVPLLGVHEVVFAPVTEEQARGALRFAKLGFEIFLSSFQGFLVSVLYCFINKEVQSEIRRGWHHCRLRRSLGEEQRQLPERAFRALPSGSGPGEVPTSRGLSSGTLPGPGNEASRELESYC
As to the kind of experiment: CRE-luc reporter assay, huGIPR. Particulars: Table 3, HEK293T, 6 h, mean ± S.E. of at least three independent experiments, NR = no response.

For test [2], the target named is huGLP1R (Homo sapiens, UniProt P43220). Kind of test: CRE-luc reporter assay, huGLP1R. Particulars: Table 3, HEK293T, 6 h, mean ± S.E. of at least three independent experiments. (In general: A reporter such as luciferase makes a cellular process visible.)
Test [3] has as its target T2, huGLP2R (Homo sapiens, UniProt O95838).
T2 construct: host or cells: HEK293T
T2 sequence (O95838 1-553): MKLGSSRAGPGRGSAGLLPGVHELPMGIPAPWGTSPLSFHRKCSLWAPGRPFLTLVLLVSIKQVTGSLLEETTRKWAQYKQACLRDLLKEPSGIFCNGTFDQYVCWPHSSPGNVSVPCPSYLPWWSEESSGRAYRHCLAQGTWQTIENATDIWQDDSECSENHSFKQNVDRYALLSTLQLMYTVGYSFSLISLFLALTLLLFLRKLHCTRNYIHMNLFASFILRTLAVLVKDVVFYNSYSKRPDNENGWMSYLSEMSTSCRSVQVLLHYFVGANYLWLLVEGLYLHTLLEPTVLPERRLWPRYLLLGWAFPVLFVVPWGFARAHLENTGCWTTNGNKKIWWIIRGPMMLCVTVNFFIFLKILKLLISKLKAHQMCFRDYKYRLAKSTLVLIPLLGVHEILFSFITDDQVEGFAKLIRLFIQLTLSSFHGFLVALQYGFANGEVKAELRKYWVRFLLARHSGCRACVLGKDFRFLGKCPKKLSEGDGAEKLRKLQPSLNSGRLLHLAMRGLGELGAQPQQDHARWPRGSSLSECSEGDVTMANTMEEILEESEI
Kind of test: CRE-luc reporter assay, huGLP2R. Conditions: Table 3, HEK293T, 6 h, mean ± S.E. of at least three independent experiments, NR = no response.

In test [4] the target is T3, huGCGR (Homo sapiens, UniProt P47871).
T3 construct: host or cells: HEK293T
As to the kind of experiment: CRE-luc reporter assay, huGCGR. Particulars: Table 3, HEK293T, 6 h, mean ± S.E. of at least three independent experiments, NR = no response.

Peptide text beside a SMILES is read from it.

T3 sequence (P47871 26-477): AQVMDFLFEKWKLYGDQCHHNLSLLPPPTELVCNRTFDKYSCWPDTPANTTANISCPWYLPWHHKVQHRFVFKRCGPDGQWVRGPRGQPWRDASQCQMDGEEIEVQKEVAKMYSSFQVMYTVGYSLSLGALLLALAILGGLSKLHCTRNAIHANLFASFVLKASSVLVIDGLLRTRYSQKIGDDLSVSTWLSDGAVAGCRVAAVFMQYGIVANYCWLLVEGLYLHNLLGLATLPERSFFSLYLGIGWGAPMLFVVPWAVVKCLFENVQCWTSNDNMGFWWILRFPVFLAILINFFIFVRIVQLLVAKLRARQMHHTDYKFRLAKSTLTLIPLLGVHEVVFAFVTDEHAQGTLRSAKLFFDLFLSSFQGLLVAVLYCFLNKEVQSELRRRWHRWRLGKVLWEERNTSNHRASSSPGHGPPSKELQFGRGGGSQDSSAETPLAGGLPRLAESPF
Chain of huGLP1R (P43220 24-463): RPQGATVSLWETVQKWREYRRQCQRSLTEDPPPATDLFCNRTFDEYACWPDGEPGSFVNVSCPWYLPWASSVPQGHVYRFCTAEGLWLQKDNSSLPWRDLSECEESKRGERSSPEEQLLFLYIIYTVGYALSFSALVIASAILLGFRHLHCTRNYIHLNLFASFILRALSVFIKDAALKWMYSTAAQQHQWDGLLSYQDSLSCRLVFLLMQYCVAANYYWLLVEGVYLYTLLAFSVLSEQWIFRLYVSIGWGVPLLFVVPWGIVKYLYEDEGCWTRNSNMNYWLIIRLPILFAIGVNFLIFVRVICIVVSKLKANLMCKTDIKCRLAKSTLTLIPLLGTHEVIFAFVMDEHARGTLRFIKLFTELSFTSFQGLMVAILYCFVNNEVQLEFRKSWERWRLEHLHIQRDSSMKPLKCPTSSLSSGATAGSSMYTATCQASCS

Usually EC50 stands for the concentration needed to bring the measured effect to its halfway point. Read a low EC50 as greater potency. As for `CC[C@H](C)[C@H](NC(=O)[C@H](CC(C)C)NC(=O)[C@H](Cc1c[nH]c2ccccc12)NC(=O)[C@H](Cc1c[nH]cn1)NC(=O)[C@@H](NC(=O)[C@H](Cc1ccccc1)NC(=O)[C@H](CC(=O)O)NC(=O)[C@H](CCCCN)NC(=O)[C@H](C)NC(=O)[C@H](CCCCN)NC(=O)[C@H](CCSC)NC(=O)[C@H](CCCCN)NC(=O)[C@H](CC(=O)O)NC(=O)[C@H](CC(C)C)NC(=O)[C@H](Cc1ccc(O)cc1)NC(=O)[C@H](CCCNC(=N)N)NC(=O)[C@@H](NC(=O)[C@H](Cc1ccccc1)NC(=O)[C@H](CC(=O)O)NC(=O)[C@H](CO)NC(=O)[C@@H](NC(=O)[C@H](Cc1ccccc1)NC(=O)[C@@H](NC(=O)CNC(=O)[C@H](CCC(=O)O)NC(=O)[C@H](CO)NC(=O)[C@@H](N)Cc1c[nH]cn1)[C@@H](C)O)[C@@H](C)O)[C@@H](C)O)C(C)C)C(=O)N[C@@H](CC(N)=O)C(=O)N[C@H](C(=O)O)[C@@H](C)O` [chGCRP] (H-HSEGTFTSDFTRYLDKMKAKDFVHWLINT-OH), the EC50 in test [1] was greater than 10000 nM; in test [2] it was 48.9 ± 9.15 nM; in test [3] it was 592 ± 127 nM; in test [4], 42.7 ± 14.5 nM.

As to `CC[C@H](C)[C@H](NC(=O)[C@H](C)NC(=O)[C@H](C)NC(=O)[C@H](CC(C)C)NC(=O)[C@H](Cc1c[nH]c2ccccc12)NC(=O)[C@H](CCC(=O)O)NC(=O)[C@@H](NC(=O)[C@H](Cc1ccccc1)NC(=O)[C@H](CC(N)=O)NC(=O)[C@H](CCCCN)NC(=O)[C@H](C)NC(=O)[C@H](CCCCN)NC(=O)[C@H](CCSC)NC(=O)[C@H](CCCCN)NC(=O)[C@H](CC(=O)O)NC(=O)[C@H](CC(C)C)NC(=O)[C@H](Cc1ccc(O)cc1)NC(=O)[C@H](CC(N)=O)NC(=O)[C@@H](NC(=O)[C@H](CC(C)C)NC(=O)[C@H](CC(=O)O)NC(=O)[C@H](CO)NC(=O)[C@@H](NC(=O)[C@H](Cc1ccccc1)NC(=O)[C@H](CCSC)NC(=O)CNC(=O)[C@H](CC(=O)O)NC(=O)[C@@H](NC(=O)[C@@H](N)Cc1c[nH]cn1)[C@@H](C)O)[C@@H](C)O)[C@@H](C)O)C(C)C)C(=O)N[C@@H](CCCCN)C(=O)N[C@@H](CCC(N)=O)C(=O)N[C@@H](CCC(N)=O)C(=O)N[C@@H](CCC(=O)O)C(=O)O` [mdGCRP] (H-HTDGMFTSDLTNYLDKMKAKNFVEWLAAIKQQE-OH), the EC50 in test [1] was greater than 10000 nM; in test [2], 156 ± 32.8 nM; in test [3], greater than 10000 nM; in test [4], 175 ± 41.8 nM.

Take `CSCC[C@H](NC(=O)[C@H](CC(C)C)NC(=O)[C@H](Cc1c[nH]c2ccccc12)NC(=O)[C@H](CCC(N)=O)NC(=O)[C@@H](NC(=O)[C@H](Cc1ccccc1)NC(=O)[C@H](CC(=O)O)NC(=O)[C@H](CCCCN)NC(=O)[C@H](C)NC(=O)[C@H](CCCCN)NC(=O)[C@H](CCSC)NC(=O)[C@H](CCCCN)NC(=O)[C@H](CC(=O)O)NC(=O)[C@H](CC(C)C)NC(=O)[C@H](Cc1ccc(O)cc1)NC(=O)[C@H](CCCNC(=N)N)NC(=O)[C@@H](NC(=O)[C@H](CC(C)C)NC(=O)[C@H](CC(=O)O)NC(=O)[C@H](CO)NC(=O)[C@H](CO)NC(=O)[C@H](Cc1ccccc1)NC(=O)[C@@H](NC(=O)CNC(=O)[C@H](CCC(=O)O)NC(=O)[C@H](CO)NC(=O)[C@@H](N)Cc1c[nH]cn1)[C@@H](C)O)[C@@H](C)O)C(C)C)C(=O)N[C@@H](CC(N)=O)C(=O)O` [xeGCRP] (H-HSEGTFSSDLTRYLDKMKAKDFVQWLMN-OH): the EC50 in test [1] was greater than 10000 nM; in test [2], greater than 1000 nM; in test [3], greater than 10000 nM; in test [4], 182 ± 39.5 nM.
